The numbers were not newly measured in US12071516B2, “Polymeric stabilizing formulations” (Nano Precision Medical, Inc., priority 2014, dated 2024), which cites them from elsewhere.

Structures are written as SMILES.

For the compound `OCCN1CCN(CCCN2c3ccccc3Sc3ccc(C(F)(F)F)cc32)CC1` [Fluphenazine], the water solubility entry is “limited water solubility”.
